Measured values taken from patent US20050100519A1, “Topical L-carnitine compositions” (Lonza Inc., priority 2003, published 2005).
Entries after “also recorded” stand apart in the source; their conditions may differ.

What was measured:
skin [1] = assay: Moisturizing efficacy: water content of the skin measured with a corneometer; assay type: in vivo, human; conditions: 5% in cream
Method: Each composition was applied twice daily to skin (0.2 g/10 cm^2) over a period of 10 days, and the water content of the skin was measured with a corneometer. Untreated skin was also tested as a control.

skin [2] = assay: Exfoliating efficacy of topical creams by the dansyl chloride method (skin turnover time); assay type: in vivo, human
Method: The exfoliating efficacy of topical L-carnitine compositions of varying pH was determined as follows. L-carnitine containing reparative/exfoliating creams with a UV sunscreen were prepared as described in Example 2, except (1) phase B included 10.00% urea, 3.0% Natrulon® H-10, and 45.50% deionized water, (2) phase C included (a) 5.6% L-carnitine, (b) q,s. of sodium hydroxide and hydrochloric acid to adjust the pH of the cream to 4, 5, 6, or 7, and (c) 20.1% deionized water.
Each topical composition (creams) was tested as follows. The composition was applied twice daily to skin (approximately 0.2 g/10 cm^2) over a period of 20 days, and the exfoliation was measured using the dansyl chloride method.
The dansyl chloride method is a method of measuring skin turnover time. The method involves first treating the skin with a fluorescent dye (namely, dansyl chloride) and then, with the aid of a UV light, observing the disappearance of the fluorescence over time. When the site no longer fluoresces, the skin is considered to have turned over.
The exfoliating efficacy of the glycolic acid cream was compared to that of the L-carnitine creams at pH 4 and pH 7 described in Example 7 by the procedure described in Example 7.
The exfoliating efficacy of topical compositions (all at pH 7) containing 2.8% or 5.6% L-carnitine or 2.8% or 5.6% racemic (DL) carnitine was determined by the method described in Example 7. The 5.6% L-carnitine composition tested was that described in Example 7. The 5.6% DL-carnitine composition was prepared as described in Example 7, replacing the 5.6% L-carnitine with 5.6% DL-carnitine. The 2.8% L-carnitine and 2.8% DL-carnitine compositions were prepared as described in Example 7, replacing the 5.6% L-carnitine with (1) 2.8% L-carnitine and 2.8% DL-carnitine, respectively, and (2) 2.8% deionized water. DL-carntine is a racemic mixture containing 50% L-carnitine and 50% D-carnitine.
The exfoliating efficacy of topical compositions including (1) papain, (2) 5.6% L-carnitine, (3) 5.6% glycolic acid, or (4) papain with 5.6% L-carnitine was determined as follows.
The compositions were tested by the procedure described in Example 7.

Molecule	Water content of the skin after 1 day of treatment (skin [1]; twice daily 0.2 g/10 cm^2, 1 day)	Water content of the skin after 2 days of treatment (skin [1]; twice daily 0.2 g/10 cm^2, 2 days)	Water content of the skin after 3 days of treatment (skin [1]; twice daily 0.2 g/10 cm^2, 3 days)	Water content of the skin after 6 days of treatment (skin [1]; twice daily 0.2 g/10 cm^2, 6 days)	Water content of the skin after 8 days of treatment (skin [1]; twice daily 0.2 g/10 cm^2, 8 days)	Water content of the skin after 9 days of treatment (skin [1]; twice daily 0.2 g/10 cm^2, 9 days)	Water content of the skin after 10 days of treatment (skin [1]; twice daily 0.2 g/10 cm^2, 10 days)	exfoliating efficacy compared with racemic (DL) carnitine (skin [2]; 2.8% or 5.6% creams, all at pH 7 (FIG. 3))	exfoliating efficacy, effect of composition pH (skin [2]; 5.6% L-carnitine cream at pH 4, 5, 6 or 7, applied twice daily over 20 days (FIG. 1))	exfoliating efficacy compared with glycolic acid (skin [2]; L-carnitine cream, alone or with papain, vs 5.6% glycolic acid cream pH 4.0 (FIG. 2, FIG. 4))	ability to exfoliate and reduce the time needed for skin turnover (skin [2]; pH 4-7)
decaglycerol	44.4%	54.2%	56.9%	53.0%	59.2%	62.8%	60.5%	–	–	–	–
C[N+](C)(C)C[C@H](O)CC(=O)[O-] [L-carnitine]	–	–	–	–	–	–	–	more effective as an exfoliant than racemic carnitine at the same concentration; also recorded: exfoliates skin more effectively and faster than racemic carnitine	most effective at the optimal pH for enzymes, i.e., at a pH around 7; also recorded: exfoliates skin more effectively and faster in a topical composition at a pH of 7 than a similar composition at a pH of 4, 5, or 6	exfoliates skin more effectively and faster than glycolic acid	exhibits the ability to exfoliate and to significantly reduce the time needed for skin turnover
